Patent publication US20200345747A1, “USE OF […] THE TREATMENT OF HEMOLYTIC UREMIC SYNDROME” (priority 2017, published 2020)
Structures can show the parent of a compound that is named as a salt.

Assays:
5HT1 = conditions: cited from earlier work
alpha1 = conditions: cited from earlier work
[1] = human, in vivo
[2] = Initial treatment of patients with atypical HUS (HUSa) with Fenoldopam; type: in vivo, human
muscarinic receptors = conditions: cited from earlier work
5HT2 = conditions: cited from earlier work
α2 adrenergic receptors = conditions: cited from earlier work
dopamine receptor D1 = dopamine receptor D1 (Homo sapiens, UniProt P21728); conditions: cited from earlier work
Chain of dopamine receptor D1 (P21728 whole entry, species assumed): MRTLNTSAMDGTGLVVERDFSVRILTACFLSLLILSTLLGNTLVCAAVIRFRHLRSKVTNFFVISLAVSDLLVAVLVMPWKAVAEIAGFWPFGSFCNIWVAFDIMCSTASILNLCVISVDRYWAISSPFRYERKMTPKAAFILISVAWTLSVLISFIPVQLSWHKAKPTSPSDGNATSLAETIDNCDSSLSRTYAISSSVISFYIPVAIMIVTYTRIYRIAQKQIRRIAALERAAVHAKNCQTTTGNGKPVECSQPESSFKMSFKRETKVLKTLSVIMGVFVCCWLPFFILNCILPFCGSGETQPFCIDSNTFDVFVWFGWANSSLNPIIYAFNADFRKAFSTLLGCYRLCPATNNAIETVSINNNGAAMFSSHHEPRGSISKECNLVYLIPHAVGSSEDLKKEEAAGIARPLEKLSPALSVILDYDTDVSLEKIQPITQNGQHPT

[3] = off-label, doses 10 times lower than the standard dosage; cited from earlier work
D2 = D2 (Homo sapiens, UniProt P14416); conditions: cited from earlier work
Chain of D2 (P14416 whole entry): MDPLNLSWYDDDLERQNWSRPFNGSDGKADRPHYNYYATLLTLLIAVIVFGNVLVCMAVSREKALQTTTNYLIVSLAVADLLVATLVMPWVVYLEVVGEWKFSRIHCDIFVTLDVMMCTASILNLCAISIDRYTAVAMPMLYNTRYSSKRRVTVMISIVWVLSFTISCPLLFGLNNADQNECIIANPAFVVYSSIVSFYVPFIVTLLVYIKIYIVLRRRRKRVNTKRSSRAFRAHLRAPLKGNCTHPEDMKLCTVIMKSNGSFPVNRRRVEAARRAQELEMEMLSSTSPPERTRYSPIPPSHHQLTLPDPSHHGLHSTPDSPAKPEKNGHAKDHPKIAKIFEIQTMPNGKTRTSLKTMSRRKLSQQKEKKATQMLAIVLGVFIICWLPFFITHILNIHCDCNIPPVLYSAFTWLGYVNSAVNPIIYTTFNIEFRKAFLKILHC

## Oc1ccc(C2CNCCc3c2cc(O)c(O)c3Cl)cc1 (stereo not shown) [Fenoldopam, Fenoldopam mesylate]
5HT1
  affinity for 5HT1 receptors: does not have any affinity
alpha1
  affinity for alpha1 receptors: does not have any affinity
[1]
  levels of creatininemia versus control groups: lower (compared with group 1) or equivalent (with group 2)
  mean days in dialysis: 0.3 (CI: 0-1.1) days
  neurological effects during the acute phase: None
  permanent kidney or other damage: None
  preservation of kidney function (subjects treated): 10 of the 12
  reduction of the real resistive index, "on" versus "off" therapy: −10.8%
  side effects attributable to treatment: none
  subjects needing dialytic support during the acute phase of the disease: 17%
[2]; three cases of HUSa initially treated, before anti-CS antibody
  natural course of the disease: less aggressive
[2]; three cases of HUSa, pretreated before anti-CS antibody
  overall outcome after subsequent specific treatment: complete relief without permanent injuries
Muscarinic receptors
  affinity for muscarinic receptors: does not have any affinity
5HT2
  affinity for 5HT2 receptors: does not have any affinity
α2 adrenergic receptors
  affinity to α2 adrenergic receptors: weak affinity
Dopamine receptor D1
  activity at dopamine receptor D1: partial agonist
[3]
  efficacy in acute renal failure: contrasting efficacy results
  side effects in acute renal failure use: without the observation of any side effects
D2
  affinity for D2 receptors: does not have any affinity
